Measured values reported in the NIST ThermoML archive (doi:10.1016/j.fluid.2009.07.002).

Assay: xn = mol fraction of the nth substance listed
Conditions: 101 kPa, Liquid, Taylor dispersion method

OCCOCCOCCO [triethylene glycol] + O
binary diffusion coefficient [m2/s]
Conditions | 303.2 K | 308.2 K | 313.2 K | 318.2 K | 323.2 K
x1 = 0 | 8.15e-10 | 8.99e-10 | 9.94e-10 | 1.07e-09 | 1.18e-09
x1 = 0.2 | 3.71e-10 | 4.3e-10 | 5.1e-10 | 5.48e-10 | 6.3e-10
x1 = 0.4 | 2.78e-10 | 3.12e-10 | 3.7e-10 | 4.27e-10 | 4.8e-10
x1 = 0.6 | 2.33e-10 | 2.7e-10 | 3.25e-10 | 3.79e-10 | 4.44e-10
x1 = 0.8 | 2.01e-10 | 2.41e-10 | 2.98e-10 | 3.51e-10 | 4.15e-10

OCCOCCO [diethylene glycol] + O
binary diffusion coefficient [m2/s]
Conditions | 303.2 K | 308.2 K | 313.2 K | 318.2 K | 323.2 K
x1 = 0 | 1.04e-09 | 1.13e-09 | 1.25e-09 | 1.41e-09 | 1.53e-09
x1 = 0.2 | 4.69e-10 | 5.24e-10 | 6.02e-10 | 7.01e-10 | 7.83e-10
x1 = 0.4 | 3.18e-10 | 3.75e-10 | 4.45e-10 | 5.16e-10 | 5.71e-10
x1 = 0.6 | 2.82e-10 | 3.29e-10 | 3.93e-10 | 4.6e-10 | 5.37e-10
x1 = 0.8 | 2.56e-10 | 3.06e-10 | 3.72e-10 | 4.3e-10 | 5.03e-10

OCCO [1,2-ethanediol] + O
binary diffusion coefficient [m2/s]
Conditions | 298.2 K | 303.2 K | 308.2 K | 313.2 K | 318.2 K | 323.2 K
x1 = 0 | 1.1e-09 | 1.24e-09 | 1.38e-09 | 1.51e-09 | 1.68e-09 | 1.86e-09
x1 = 0.2 | 6.95e-10 | 8.14e-10 | 8.89e-10 | 9.8e-10 | 1.09e-09 | 1.19e-09
x1 = 0.4 | 4.82e-10 | 5.28e-10 | 5.8e-10 | 6.31e-10 | 7.57e-10 | 8.48e-10
x1 = 0.6 | 3.81e-10 | 4.02e-10 | 4.51e-10 | 5.18e-10 | 6e-10 | 6.88e-10
x1 = 0.8 | 3.18e-10 | 3.34e-10 | 4.05e-10 | 4.68e-10 | 5.24e-10 | 6.03e-10
